How the values were obtained:
p65 and PKA-Cβ = test: Co-immunoprecipitation of p65 and PKA-Cβ in BEAS-2B cells; format: cell-based, human; settings: BEAS-2B cells transfected with p65 and PKA-Cβ; co-treatment of roflumilast with NTHi
Experimental: Immunoprecipitation. Cell extracts were incubated with 1 μg of primary antibodies overnight at 4° C., followed by a 2 h incubation with protein G PLUS-agarose beads (Santa Cruz Biotechnology). Immunoprecipitates were then suspended in a sample buffer, separated on 8% SDS-PAGE gels, transferred to PVDF membrane, and detected by immunoblot analysis as described above.

PDE4B2 [1] = test: PDE4B2 expression (RT-PCR) in BEAS-2B cells; format: cell-based, human
Experimental: (§1) Bacterial strains and culture condition. Clinical isolates of NTHi strain 12 were used in this study (Ishinaga et al., EMBO J., 26(4):1150-1162, 2007). Bacteria were grown on chocolate agar plates at 37° C. in an atmosphere of 5% CO2 overnight and subsequently inoculated in brain heart infusion (BHI) broth supplemented with 3.5 μg/mL NAD and hemoglobin (BD Biosciences). After overnight incubation, the bacteria were subcultured into fresh broth and the log phase bacteria, monitored by measurement of optical density (OD) value, were washed and suspended in DMEM for in vitro cell experiments and in isotonic saline for in vivo animal experiments. For all in vitro experiments except the dose dependent experiment, NTHi was treated at multiplicity of infection (MOI) of 50.
(§2) Cell culture. All media described below were supplemented with 10% fetal bovine serum (Sigma-Aldrich). Human bronchial epithelial BEAS-2B cells were maintained in RPMI medium (Life Technologies) (ATCC® CRL-9609™). Human primary bronchial epithelial NHBE (Lonza) cells were maintained in bronchial epithelial growth media (BEGM) supplemented with BEGM SingleQuots (Jono et al., J. Biol. Chem. 277(47):45547-45557, 2002). BEAS-2B cells stably expressing human PDE4B2 (PDE4B2-stable cells) were obtained by plasmid transfection following Geneticin selection (300 μg/mL). Cells were cultured in a humidified atmosphere of 5% CO2 at 37° C.
Plasmids, transfections and luciferase assay. The expression plasmids, constitutively active forms of IKKα (IKKα-CA, S176E/S180E) and IKKβ (IKKβ-CA, S177E/S181E) and a dominant negative form of IκBα (IκBα-DN, S32A/S36A) were previously described (Shuto et al., Proc. Natl. Acad. Sci. USA, 98(15):8774-8779, 2001; Ishinaga et al., supra). Luciferase reporter construct of NF-κB (pGL4.32) was purchased from Promega. Human PDE4B2, p65 (RelA) and PKA-Cβ1/2 cDNA sequences were generated and inserted into the BamHI and HindIII sites of the pcDNA3.1/mycHis(−) vector. Mutant p65 and PDE4B2-D392A were generated by using PRIMESTAR® Max (Takara). Empty vector was used as a control and was also added where necessary to ensure an equivalent amount of input DNA. All transient transfections were carried out in triplicate using TRANSIT-LT1® reagent (Minis) following the manufacturer's instruction.

p65 = p65 phosphorylation by Phos-tag PAGE in BEAS-2B cells; format: cell-based, human; settings: roflumilast as co-treatment with NTHi
Experimental: Phos-tag PAGE. Recombinant p65 proteins or nuclear extracts recovered without EDTA/EGTA were separated by SDS-PAGE, with 6% gels containing 50 μM Mn^2+-Phos-tag Acrylamide and transferred to PVDF membrane according to the manufacture's instructions (Kinoshita et al., Mol. Cell. Proteomics 5(4):749-757, 2006.

PDE4B2 [2] = test: PDE4B2 protein expression (Western blot) in mouse lung tissue extracts; format: in vivo; settings: NTHi and roflumilast
Experimental: (§3) Western blot. Whole-cell extracts and mouse lung tissue extracts were recovered with lysis buffer (50 mM Tris-HCl at pH7.4, 1% NP40, 0.25% deoxycholate, 150 mM NaCl, 1 mM EDTA, 1 mM NaF, supplemented with 1 mM Na3VO4 and PIC). For PDE4B protein, cell extracts were recovered with Buffer A as described above. Cell or tissue extracts were separated on 8% SDS-PAGE gels and transferred to polyvinylidene difluoride (PVDF) membrane (GE Healthcare Life Sciences). The membrane was blocked with a solution of TBS containing 0.1% Tween 20 (TBS-T) and 5% non-fat dry milk. The membrane was then incubated in a 1:1,000-1:2,000 dilution of a primary antibody in 5% BSA-TBS-T. After washing (×3) with TBS-T, the membrane was incubated with a 1:5,000 dilution of the corresponding secondary antibody in 2.5% non-fat dry milk-TBS-T. Respective proteins were visualized using Amersham ECL Prime Regent (GE Healthcare Life Sciences).
Mice and animal experiments. […]
Immunofluorescent staining. Formalin-fixed paraffin-embedded mouse lung tissue was sectioned (4 μm) and PDE4B protein was detected using a rabbit anti-PDE4B and an FITC-conjugated goat anti-rabbit IgG (Santa Cruz Biotechnology). Stained sections were then imaged, and images were recorded under light- and fluorescence-microscopy systems (AxioVert 40 CFL, AxioCam MRC, and AxioVision LE Image system, Carl Zeiss).

PDE4D = test: Expression of PDE4D in BEAS-2B cells; format: cell-based, human; settings: NTHi or roflumilast
PDE4 = settings: estimated; Bender and Beavo; cited from earlier work
[3] = test system: CCL5, CCL7, CXCL10, CXCL11, IL-8, GM-CSF and TNF-α; test: NTHi-induced expression of pro-inflammatory mediators in BEAS-2B cells; format: cell-based, human
Experimental: as §1, with “Clinical isolates of NTHi strain 12 were used in this study (Ishinaga et al., EMBO J., 26(4):1150-1162, 2007).” left out
Cell culture. All media described below were supplemented with 10% fetal bovine serum (Sigma-Aldrich). […] BEAS-2B cells stably expressing human PDE4B2 (PDE4B2-stable cells) were obtained by plasmid transfection following Geneticin selection (300 μg/mL). Cells were cultured in a humidified atmosphere of 5% CO2 at 37° C.

PDE4B [4] = test: PDE4B mRNA expression (Q-PCR) in primary NHBE cells stimulated with NTHi; format: cell-based, human; settings: Rof 0.1 μM 1 hour, then 1.5-hour NTHi
Experimental: as §1
as §2, with “Cells were cultured in a humidified atmosphere of 5% CO2 at 37° C.” left out

PDE4A and 4C = test: Expression of other PDE4 family members (PDE4A, 4C) in BEAS-2B cells; format: cell-based, human; settings: NTHi or roflumilast
Text: as §2

NF-κB promoter = test: IKKβ-CA-induced NF-κB promoter activity (luciferase) in PDE4B2-transfected cells; format: cell-based, human; settings: up to 10 μM
Experimental: (§4) Plasmids, transfections and luciferase assay. […] Empty vector was used as a control and was also added where necessary to ensure an equivalent amount of input DNA. All transient transfections were carried out in triplicate using TRANSIT-LT1® reagent (Minis) following the manufacturer's instruction.

PDE4B [5] = test: PDE4B mRNA expression in lung tissues of NTHi-inoculated mice; settings: mice, Rof 5 mg/kg i.p. 2 hours before intratracheal NTHi 5×10^7 cfu per lung, after 5 hours
PDE4B2 [6] = test: PDE4B2 protein expression (Western blot) in airway epithelial cell extracts; format: cell-based, human; settings: NTHi and roflumilast
Experimental: as §3

[7] = test system: Group A chemokines (CCL5, CCL7, CXCL10, CXCL11); test: IKKβ-CA-induced Group A-chemokine expression in PDE4B2-transfected cells; format: cell-based, human; settings: up to 10 μM
Experimental: as §4

[8] = cells overexpressing PDE4B2-WT or PDE4B2-D392A
[9] = cells transfected with PDE4B2-D392A

SMILES: O=C(Nc1c(Cl)cncc1Cl)c1ccc(OC(F)F)c(OCC2CC2)c1 [roflumilast]
- interaction of p65 and PKA-Cβ (p65 and PKA-Cβ): enhanced
- expression of PDE4B2 (PDE4B2 [1]; BEAS-2B, Rof 0.1 μM with NTHi or TNF-α (10 ng/mL), semi-quantitative RT-PCR): synergistically up-regulated
- PDE4B2 expression (PDE4B2 [1]; cells transfected with p65 mutants S468A, S529A and S536A but not S276A, roflumilast and NTHi): synergistically enhanced
- PDE4B2 expression (PDE4B2 [1]; in IKKβ-CA- but not IKKα-CA-transfected BEAS-2B cells): synergistically enhanced
- PDE4B2 expression (PDE4B2 [1]; p65-transfected cells): synergistically enhanced
- phosphorylation of p65 (induction) (p65): induced phosphorylation of p65
- ~70-kDa PDE4B isoform (PDE4B2 protein) (PDE4B2 [2]): induced an increase
- expression of PDE4D (PDE4D): up-regulated by NTHi or roflumilast but no significant synergistic effect
- IC50 (PDE4): < 1 nM
- NTHi-induced induction of CCL5, CCL7 and IL-8 ([3]; BEAS-2B cells): modestly suppressed
- NTHi-induced induction of TNF-α and GM-CSF ([3]; BEAS-2B cells): markedly inhibited
- NTHi-induced CXCL10 and CXCL11 induction ([3]; BEAS-2B cells, even at higher concentration): almost no inhibitory effect
- efficacy in suppressing Group A-chemokines ([3]; in PDE4B-depleted but not in PDE4D-depleted cells): more efficacious
- PDE4B mRNA expression (PDE4B [4]): increasing PDE4B mRNA significantly
- expression of PDE4A and 4C (PDE4A and 4C): not up-regulated
- IKKβ-CA-induced NF-κB promoter activity (NF-κB promoter; [8]): unable to fully inhibit
- IKKβ-CA-induced NF-κB promoter activity (NF-κB promoter; [9]): unable to fully inhibit
- PDE4B mRNA expression in lung tissues (PDE4B [5]): synergistically enhanced
- PDE4B mRNA expression in lung tissues (PDE4B [5]; listed as Rof): significantly elevated
- ~70-kDa PDE4B isoform (PDE4B2 protein) (PDE4B2 [6]): induced an increase
- IKKβ-CA-induced Group A-chemokine expression [7, 8]: unable to fully inhibit
- IKKβ-CA-induced Group A-chemokine expression [7, 9]: unable to fully inhibit
